Measurements reported in patent publication US12612392B2, “Compound, pharmaceutical compositions containing same, synthesis method therefor and use thereof” (SHENZHEN ZHONGGE BIOLOGICAL TECHNOLOGY CO., LTD., priority 2022, dated 2026).

system: HEK293T/17-ATF4 uORF-Luc-Puro monoclonal cells; test: Cell activity test: ATF4 luciferase reporter, thapsigargin-induced stress; assay type: cell-based; conditions: Homo sapiens, HEK-293T; ATF4 reporter expression, 50 nM thapsigargin, 6 hours
Text: The ATF4 luciferase reporter plasmid consists of two parts, i.e., the 5′ untranslated region sequence of the ATF4 gene and the luciferase coding sequence. Specifically, the ATF4 5′ untranslated region sequence (NCBI database number BC022088.2) containing two upstream open reading frames (uORFs), and the firefly luciferase encoding gene were cloned into the pLVX-Puro vector (YouBio, VT1465). The lentivirus packaging plasmids were psPAX2 (YouBio, VT1444) and pMD2.G (YouBio, VT1443). HEK293T/17 cells were transfected with the above three plasmids simultaneously using X-tremeGENE 9 DNA transfection reagent, and after 48 hours, a culture medium containing lentivirus was collected. HEK293T/17 cells transduced with the virus were screened with 1 μg/mL puromycin, and then monoclonal cells were obtained by limiting dilution.
By using this cell line and the cold fluorescence readings, the translational regulation of ATF4 can be detected, and the activity of the eIF2B activator can be tested. The specific experimental process is as follows: 6000 HEK293T/17-ATF4 uORF-Luc-Puro monoclonal cells were plated in a 384-well plate and allowed to adhere overnight. The test compounds were dissolved in DMSO and added together with 50 nM thapsigargin to the cell culture medium and incubated for 6 hours, wherein the thapsigargin was used to cause cellular stress and upregulate the protein translation of ATF4. Six hours after the addition, the cells were lysed using the One-Glo Luciferase Assay Kit (Promega #E6120), and then the cold fluorescence values were read using the LUM program of the EnVision 2104 plate reader.
The ATF4 reporter expression % was calculated as follows:
[formula] • ave_vc: average signal value of negative control • ave_pc: average signal value of positive control • ave_sample: average signal value of sample
The dose-response curves were fitted, and the EC50 values were calculated.
The nonlinear regression log (inhibitor) vs. response—variable slope (four parameters) method of GraphPad 9 software was used to fit the corresponding relationship between the ATF4 reporter expression % and the compound concentration.
X-axis: log value of compound concentration; Y-axis: ATF4 reporter expression %; Top: evaluation of upper asymptote of curve; Bottom: evaluation of lower asymptote of curve; Hillslope: slope of the fitted curve.

SMILES	EC50 [nM]
O=C(COc1ccccc1Cl)N[C@H]1CC[C@H](c2nnc(N3CC(OC(F)(F)F)C3)o2)CC1 [Compound 22]	> 100
O=C(COc1cc(F)c(Cl)cc1Cl)N[C@H]1CC[C@H](c2nnc(N3CC(OC(F)(F)F)C3)o2)CC1 [Compound 49]	> 100
COC1CN(c2nnc(C3CCN(NC(=O)COc4ccc(Cl)c(F)c4)CC3)o2)C1 [Compound 1]	10 to 100
O=C(COc1ccc(F)c(F)c1)N[C@H]1CC[C@H](c2nnc(N3CC(OC(F)(F)F)C3)o2)CC1 [Compound 34]	1 to 10
O=C(CO[C@H]1C[C@@H](OC(F)(F)F)C1)N[C@H]1CC[C@H](c2nnc(N3CC(OC(F)(F)F)C3)o2)CC1 [Compound 17]	10 to 100
O=C(N[C@H]1CC[C@H](c2nnc(N3CC(OC(F)(F)F)C3)o2)CC1)c1cnc(C(F)F)cn1 [Compound 45]	> 100
Fc1cc(OCC(=S)N[C@H]2CC[C@H](c3nnc(N4CC(OC(F)(F)F)C4)o3)CC2)ccc1Cl [Compound 12]	1 to 10
O=C(COc1ncc(C(F)(F)F)s1)N[C@H]1CC[C@H](c2nnc(N3CC(OC(F)(F)F)C3)o2)CC1 [Compound 53]	> 100
O=C(COc1cc(F)c(Cl)c(F)c1)N[C@H]1CC[C@H](c2nnc(N3CC(OC(F)(F)F)C3)o2)CC1 [Compound 47]	1 to 10
O=C(COc1ccc(F)c(Cl)c1)N[C@H]1CC[C@H](c2nnc(N3CC(OC(F)(F)F)C3)o2)CC1 [Compound 25]	1 to 10
O=C(COc1ccc(Cl)c(F)c1)N[C@H]1CC[C@H](c2nnc(NC3CC(C(F)(F)F)C3)o2)CC1 (stereo partly shown) [Compound 11]	10 to 100
O=C(COc1ccc(Cl)c(F)c1)NC12CCC(c3nnc(N4CC(OC(F)(F)F)C4)o3)(CC1)CC2O (stereo not shown) [Compound 4]	< 1
O=C(CO[C@H]1CC[C@H](c2nnc(N3CC(OC(F)(F)F)C3)o2)CC1)Nc1ccc(Cl)c(F)c1 [Compound 90]	1 to 10
O=C(COc1cccc(Cl)c1Cl)N[C@H]1CC[C@H](c2nnc(N3CC(OC(F)(F)F)C3)o2)CC1 [Compound 32]	> 100
Cc1csc(C(=O)N[C@H]2CC[C@H](c3nnc(N4CC(OC(F)(F)F)C4)o3)CC2)n1 [Compound 42]	> 100
O=C(COc1ncc(Cl)cn1)N[C@H]1CC[C@H](c2nnc(N3CC(OC(F)(F)F)C3)o2)CC1 [Compound 35]	> 100
O=C(N[C@H]1CC[C@H](c2nnc(N3CC(OC(F)(F)F)C3)o2)CC1)c1ccc2c(c1)CCCO2 [Compound 46]	> 100
O=C(COc1ccc(Cl)c(F)c1)NC12CCC(c3nnc(N4CC(OC(F)(F)C(F)(F)F)C4)o3)(CC1)CC2 [Compound 10]	1 to 10
O=C(COc1ccc(Cl)c(F)c1)NN1CCC(c2nnc(N3CC(OC(F)(F)F)C3)o2)CC1 [Compound 7]	< 1
O=C(COc1ccccc1F)N[C@H]1CC[C@H](c2nnc(N3CC(OC(F)(F)F)C3)o2)CC1 [Compound 29]	> 100
O=C(COc1ccc(Cl)c(F)c1)N[C@H]1CC[C@H](c2nnc(N3CC(OC(F)F)C3)o2)CC1 [Compound 19]	1 to 10
O=C(COc1ccc(Cl)c(Br)c1)N[C@H]1CC[C@H](c2nnc(N3CC(OC(F)(F)F)C3)o2)CC1 [Compound 26]	< 1
CN(c1nnc([C@H]2CC[C@H](NC(=O)COc3ccc(Cl)c(F)c3)CC2)o1)C1CC(C(F)(F)F)C1 (stereo partly shown) [Compound 14]	10 to 100
O=C(N[C@H]1CC[C@H](c2nnc(N3CC(OC(F)(F)F)C3)o2)CC1)c1ccc2cc(Cl)ccc2n1 [Compound 44]	1 to 10
O=C(COc1cccc(Cl)c1)N[C@H]1CC[C@H](c2nnc(N3CC(OC(F)(F)F)C3)o2)CC1 [Compound 23]	10 to 100
O=C(COc1cccc(F)c1)N[C@H]1CC[C@H](c2nnc(N3CC(OC(F)(F)F)C3)o2)CC1 [Compound 24]	10 to 100
O=C(COc1ccc(Cl)cc1Cl)N[C@H]1CC[C@H](c2nnc(N3CC(OC(F)(F)F)C3)o2)CC1 [Compound 27]	10 to 100
O=C(COc1ccc(Cl)c(F)c1)NC12CCC(c3nnc(N4CC5(C4)CC(F)(F)C5)o3)(CC1)CC2 [Compound 8]	10 to 100
